# Entries after “also recorded” stand apart in the source; their conditions may differ.
# How the values were obtained:
# [1] = Body weight gain during daily SC fluocinolone in CCI rats; type: in vivo, rat; conditions: for body weight difference to vehicle controls: 25 μg/kg SC daily
# Description: (§1) The purpose of this study is to evaluate the efficacy of fluocinolone acetonide (Sigma Cat# F8880-25MG; Sigma Aldrich, St. Louis, Mo.), a potent corticosteroid, to reduce neuropathic pain in an animal model. This animal model involves pain-associated behaviors in male Wistar rats (300-326 g) following chronic constriction injury (CCI) induced by a procedure similar to that described by Bennett and Xie (1988). Under 2% isoflurane anesthesia, the rat's common sciatic nerve is exposed and freed from adherent tissue at mid-thigh by separating the muscle (biceps femoris) by blunt dissection. Four loose ligatures are placed 1 mm apart, using chromic gut (4-0 absorbable suture, Jorgensen Laboratories, Inc. Loveland, Colo.).
# (§2) After CCI induction, each group (n=7) receive treatment via systemic injection. Vehicle control animals (Group 1) receive 1× phosphate buffered solution (PBS) intraperitoneally (IP) every three days, beginning the day of surgery (Day 0), etanercept (Group 2; 3 mg/kg) is administered IP every 3 days beginning Day 0. Animals in treatment Groups 3, 4 and 5 receive fluocinolone (0.5, 5, or 25 μg/kg) subcutaneously (SC) every day beginning Day 0.
# [2] = system: rat chronic constriction injury (CCI) model; test: Mechanical allodynia (von Frey 50% paw withdrawal threshold), systemically administered fluocinolone, rat CCI model; type: in vivo
# Description: as §1, §2
# (§3) Mechanical allodynia is measured using von Frey monofilament test (Stoelting, Wood Dale, Ill.). The plantar surface of the CCI paw of each animal is tested as described by Chaplan et al. (1994). Each animal is placed in a suspended clear plastic chamber with a wire mesh bottom. Prior to testing, each animal is acclimated for 15 minutes. The 50% paw withdrawal threshold response is determined by sequentially increasing or decreasing the stimulus strength according to the “up-down method” of Dixon (1980).
# Testing begins with a filament with a buckling weight of 2.0 g and continued through a series of filaments applied in sequence, up to about 15 g. Each filament is applied with enough pressure to cause a buckle effect. The absence of a paw lifting/withdrawal response after 5 seconds prompts the use of the filament to the next higher weight. Paw withdrawal, indicates a positive response. The testing continues for four additional measurements and is used to calculate the response threshold. Four consecutive positive responses receive a score of 0.25 g, and five consecutive negative responses (i.e., no paw withdrawal) receives a score of 15 g. The mechanical paw withdrawal threshold of each animal is measured one day prior to surgery (per-surgical baseline) and on Days 8, 15, and 22.
# (§4) The 50% paw withdrawal threshold is calculated (PWT; Luo and Calcutt, 2002, Chaplan et al. 1994) using the formula 10 (Xf+?d)/10,000, where Xf is the final von Frey filament used (log units), ? is a value that analyzes the response pattern (taken from the table published by Chaplan at al., 1994), and d is the mean difference between stimuli (log units). Data is analyzed using one-way ANOVA on each test.
# [3] = system: rat chronic constriction injury (CCI) model; test: Von Frey mechanical threshold, local pump delivery, rat CCI model; type: in vivo; conditions: 0.0032, 0.016, 0.08 ng/hour by pump, each day tested; not statistically significant
# Description: as §3
# Testing begins with a filament with a buckling weight of 2.0 g and continued through a series of filaments applied in sequence, up to about 15 g. Each filament is applied with enough pressure to cause a buckle effect. The absence of a paw lifting/withdrawal response after 5 seconds prompts the use of the filament to the next higher weight. […] The mechanical paw withdrawal threshold of each animal is measured one day prior to surgery (per-surgical baseline) and on Days 8, 15, and 22.
# as §4, with “test. […]” for “test.”
# [4] = system: rat chronic constriction injury (CCI) model; test: Thermal hyperalgesia (paw withdrawal latency), systemically administered fluocinolone, rat CCI model; type: in vivo
# Description: as §1, §2
# (§5) Thermal hyperalgesia is measured using a plantar analgesia instrument (Stoelting, Wood Dale, Ill.). Prior to testing, each animal is placed on the plantar test apparatus, a clear plastic chamber, and is allowed to rest/acclimate for 15 minutes. A radiant (heat) beam stimulus is applied to the CCI paw of each animal. After paw withdrawal, an automated control interrupts both the stimulus and the timer. The heat source device is set at intensity 50, and a maximal cut-off at 15 seconds is set to prevent tissue damage. Thermal hyperalgesia paw withdrawal latency response of the injured site (right hind paw) of each animal is measured 2 days prior to CCI surgery (pre-injury baseline) on Days 7, 14, and 21 after surgery. Data from each test is analyzed by one-way ANOVA.
# [5] = system: rat chronic constriction injury (CCI) model; test: Thermal paw withdrawal latency, local pump delivery, rat CCI model; type: in vivo; conditions: 0.0032, 0.016, and 0.08 ng/hour by osmotic mini-pump, perineural; p<0.05
# Description: as §5
# Following the above experiments, the efficacy of locally administered, low dose of fluocinolone acetonide (Sigma Cat# F8880-25MG; Lot# 043K1167, Sigma Aldrich) and dexamethasone (Sigma Aldrich) is examined in the same CCI rat model. […]
# Fluocinolone is administered at doses of 0.0032 ng/hour (0.02304 ng/kg/day), 0.016 ng/hour (0.1152 ng/kg/day), and 0.08 ng/hour (0.576 ng/kg/day). […] Thermal hyperalgesia, induced and measured as described above, is measured on Days −2, 7, 14, and 21. Mechanical allodynia, induced and measured as described above, is measured on Days −1, 8, 15, and 22.
structure (smiles),measurement,setting,value
"CC1(C)O[C@@H]2C[C@H]3[C@@H]4C[C@H](F)C5=CC(=O)C=C[C@]5(C)[C@@]4(F)[C@@H](O)C[C@]3(C)[C@]2(C(=O)CO)O1 [Fluocinolone, fluocinolone acetonide]",body weight gain compared with vehicle controls,[1]; 25 μg/kg SC daily for 21 days,significant decrease in body weight gain
same,body weight difference to vehicle controls,[1]; Day 5,~10 g
same,body weight difference to vehicle controls,[1]; by Day 22,~50 g
same,body weight gain,[1]; 0.5 or 5 μg/kg SC daily for 21 days,does not have any effect on body weight gain
same,"Von Frey Filament ""Allodynia"" Latencies as Percent of Baseline, Mean","[2]; 0.5 μg/kg every day, Day 8",45.2% of Baseline
same,"Von Frey Filament ""Allodynia"" Latencies as Percent of Baseline, Mean","[2]; 0.5 μg/kg every day, Day 15",47.1% of Baseline
same,"Von Frey Filament ""Allodynia"" Latencies as Percent of Baseline, Mean","[2]; 0.5 μg/kg every day, Day 22",66.2% of Baseline
same,"Von Frey Filament ""Allodynia"" Latencies as Percent of Baseline, Mean","[2]; 5 μg/kg every day, Day 8",54.8% of Baseline
same,"Von Frey Filament ""Allodynia"" Latencies as Percent of Baseline, Mean","[2]; 5 μg/kg every day, Day 15",57.5% of Baseline
same,"Von Frey Filament ""Allodynia"" Latencies as Percent of Baseline, Mean","[2]; 5 μg/kg every day, Day 22",55.2% of Baseline
same,"Von Frey Filament ""Allodynia"" Latencies as Percent of Baseline, Mean","[2]; 25 μg/kg every day, Day 8",76.3% of Baseline
same,"Von Frey Filament ""Allodynia"" Latencies as Percent of Baseline, Mean","[2]; 25 μg/kg every day, Day 15",68.9% of Baseline
same,"Von Frey Filament ""Allodynia"" Latencies as Percent of Baseline, Mean","[2]; 25 μg/kg every day, Day 22",70.3% of Baseline
same,mechanical allodynia compared with etanercept,"[2]; 0.5, 5, 25 μg/kg/day, not statistically significant",tend to improve mechanical allodynia over etanercept; also recorded: does not reveal any significant differences
same,mechanical allodynia compared with vehicle controls,"[2]; 0.5, 5, or 25 μg/kg/day SC, overall ANOVA",significantly improves (overall ANOVA) mechanical allodynia
same,mechanical threshold (von Frey),[3],increases in the mechanical threshold
same,"Thermal Paw Withdrawal Latencies as Percent Baseline, Mean","[4]; 0.5 μg/kg every day, Day 7",71.6 Percent Baseline
same,"Thermal Paw Withdrawal Latencies as Percent Baseline, Mean","[4]; 0.5 μg/kg every day, Day 14",70.8 Percent Baseline
same,"Thermal Paw Withdrawal Latencies as Percent Baseline, Mean","[4]; 0.5 μg/kg every day, Day 21",63.1 Percent Baseline
same,"thermal latency, t-test compared to etanercept","[4]; 0.5 μg/kg, Day 7, p<0.05",significant increase in latency on Day 7
same,"thermal latency, t-test compared to etanercept","[4]; 0.5 μg/kg, Days 14 and 21, n.s.",not on Days 14 and 21
same,thermal latencies compared with etanercept,"[4]; 0.5 μg/kg/day, only statistically significant on Day 7",tends to improve thermal latencies over etanercept
same,"Thermal Paw Withdrawal Latencies as Percent Baseline, Mean","[4]; 5 μg/kg every day, Day 7",79.7 Percent Baseline
same,"Thermal Paw Withdrawal Latencies as Percent Baseline, Mean","[4]; 5 μg/kg every day, Day 14",83.8 Percent Baseline
same,"Thermal Paw Withdrawal Latencies as Percent Baseline, Mean","[4]; 5 μg/kg every day, Day 21",80.2 Percent Baseline
same,"thermal latency, t-test compared to etanercept","[4]; 5 μg/kg, Days 7, 14, 21, p<0.05",significant increase in latency on all testing days
same,"Thermal Paw Withdrawal Latencies as Percent Baseline, Mean","[4]; 25 μg/kg every day, Day 7",67.4 Percent Baseline
same,"Thermal Paw Withdrawal Latencies as Percent Baseline, Mean","[4]; 25 μg/kg every day, Day 14",80.9 Percent Baseline
same,"Thermal Paw Withdrawal Latencies as Percent Baseline, Mean","[4]; 25 μg/kg every day, Day 21",80.0 Percent Baseline
same,thermal latency relative to vehicle controls,"[4]; 0.5, 5 and 25 μg/kg/day SC, Days 7, 14, 21, p<0.05",increase in thermal latency relative to vehicle controls; also recorded: significantly increases the paw withdrawal latency period; also recorded: significant increase in thermal latency
same,thermal hyperalgesia compared with etanercept,"[4]; 5 and 25 μg/kg/day, all days tested, etanercept 3 mg/kg IP every 3 days, ANOVA p<0.05",improves thermal hyperalgesia significantly greater than etanercept
same,"thermal latency, 5 μg/kg dose compared with 25 μg/kg dose","[4]; Day 7, Fisher LSD, p<0.05",significantly more effective than 25 μg/kg dose
same,"thermal latency, 5 and 25 μg/kg doses compared with 0.5 μg/kg dose","[4]; Days 14 and 21, Fisher LSD, p<0.05",significantly more effective than the 0.5 μg/kg dose
same,thermal paw withdrawal latency compared to PBS,[5],increases in the thermal paw withdrawal latency tests compared to PBS

# Reference: patent publication US20080317805A1, “LOCALLY ADMINISTRATED LOW DOSES OF CORTICOSTEROIDS” (priority 2007, published 2008)
